Test results from patent US20230183218A1, “CONDENSED SUBSTITUTED HYDROPYRROLES AS ANTAGONISTS OF THE MUSCARINIC ACETYLCHOLINE RECEPTOR M4” (Vanderbilt University, priority 2020, published 2023).
pIC50: −log10 of the molar value.

What was measured:
Human M4 = molecular target: T1, Human M4 (Homo sapiens, UniProt P08173); assay: mAChR M4 cell-based functional assay (calcium flux, antagonist mode vs EC80 acetylcholine), human M4/Gqi5/CHO-K1 cells; settings: for remaining activity at 30 µM: CHO-K1, read-out: Human M4 Emin (%); for pIC50: decrease of response elicited by EC80 acetylcholine, human M4/Gqi5 CHO-K1 cells
T1 construct: expressed in transfected cells; host or cells: CHO-K1 (ATCC), stably co-expressing chimeric G protein Gqi5
T1 sequence (P08173 1-479): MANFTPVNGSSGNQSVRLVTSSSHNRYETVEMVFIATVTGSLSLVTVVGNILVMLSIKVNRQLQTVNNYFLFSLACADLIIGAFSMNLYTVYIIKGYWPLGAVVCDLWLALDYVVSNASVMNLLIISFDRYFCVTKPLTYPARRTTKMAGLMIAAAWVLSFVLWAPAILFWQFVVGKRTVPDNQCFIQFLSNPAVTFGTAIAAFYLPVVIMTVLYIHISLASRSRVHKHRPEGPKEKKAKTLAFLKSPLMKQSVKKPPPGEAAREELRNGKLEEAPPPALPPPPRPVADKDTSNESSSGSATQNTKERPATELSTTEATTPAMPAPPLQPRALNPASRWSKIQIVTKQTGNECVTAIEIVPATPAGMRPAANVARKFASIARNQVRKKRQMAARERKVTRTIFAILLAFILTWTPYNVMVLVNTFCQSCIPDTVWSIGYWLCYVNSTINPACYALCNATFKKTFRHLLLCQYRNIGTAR
Outline: (§1)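 CHO-K1 cells stably expressing human or rat M4 with Gqi5, Fluo-4 loaded; calcium measured by fluorescence ratio on FDSS. Compound added, then EC20 acetylcholine at 143 s and EC80 at 268 s; IC50 from decrease of EC80 response, four-parameter logistic fit.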

Rat M4 = molecular target: T2, Rat M4 (Rattus norvegicus, UniProt P08485); assay: mAChR M4 cell-based functional assay (calcium flux, antagonist mode vs EC80 acetylcholine), rat M4/Gqi5/CHO-K1 cells; settings: for remaining activity at 30 µM: CHO-K1, read-out: Rat M4 Emin (%); for pIC50: decrease of response elicited by EC80 acetylcholine, rat M4/Gqi5 CHO-K1 cells
T2 construct: expressed in transfected cells; host or cells: CHO-K1 (ATCC), stably co-expressing chimeric G protein Gqi5
T2 sequence (P08485 1-478): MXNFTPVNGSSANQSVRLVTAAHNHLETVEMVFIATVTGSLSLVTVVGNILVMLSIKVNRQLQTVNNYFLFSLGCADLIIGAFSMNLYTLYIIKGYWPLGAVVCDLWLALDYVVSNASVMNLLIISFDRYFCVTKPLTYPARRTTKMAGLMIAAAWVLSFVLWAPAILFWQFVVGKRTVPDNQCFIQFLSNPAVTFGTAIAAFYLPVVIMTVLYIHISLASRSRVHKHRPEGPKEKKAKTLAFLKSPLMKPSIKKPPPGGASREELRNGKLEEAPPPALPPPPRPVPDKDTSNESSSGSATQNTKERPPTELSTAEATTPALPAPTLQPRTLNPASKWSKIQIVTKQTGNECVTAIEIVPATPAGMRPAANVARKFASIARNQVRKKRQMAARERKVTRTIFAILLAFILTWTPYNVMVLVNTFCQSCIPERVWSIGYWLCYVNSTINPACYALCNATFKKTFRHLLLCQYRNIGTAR
Outline: as §1

[1] = % ACh maximum at 30 μM, human M4

Row | SMILES | remaining activity at 30 µM (Human M4; [1]) | pIC50 (Human M4) | remaining activity at 30 µM (Rat M4; % ACh maximum at 30 μM, rat M4) | pIC50 (Rat M4) | Human M4 Emin (%) (Human M4; [1]) | Rat M4 Emin (%) (Rat M4; % ACh maximum at 30 μM, rat M4)
1 | Cn1cc2cc(-c3ccc(N[C@H]4C[C@@H]5CN(C6CCOCC6)C[C@@H]5C4)nn3)ccc2n1 [compound 62, (3aR,5s,6aS)-N-(6-(2-methyl-2H-indazol-5-yl)pyridazin-3-yl)-2-(tetrahydro-2H-pyran-4-yl)octahydrocyclopenta[c]pyrrol-5-amine] | 9% | 5.76 | 11% | 5.67 |  | 
2 | Cn1cc2cc(-c3ccc(N[C@H]4C[C@@H]5CN(C6CCOC(C)(C)C6)C[C@@H]5C4)nn3)ccc2n1 (stereo partly drawn) [compound 63, (3aR,5s,6aS)-2-(2,2-dimethyltetrahydro-2H-pyran-4-yl)-N-(6-(2-methyl-2H-indazol-5-yl)pyridazin-3-yl)octahydrocyclopenta[c]pyrrol-5-amine] | 3% | 8.02 | 5% | 6.43 |  | 
3 | Fc1ccc(Cl)c(-c2ccc(N[C@H]3C[C@@H]4CN(C5(C6CCOCC6)CC5)C[C@@H]4C3)nn2)c1 [compound 64, (3aR,5s,6aS)-N-(6-(2-chloro-5-fluorophenyl)pyridazin-3-yl)-2-(1-(tetrahydro-2H-pyran-4-yl)cyclopropyl)octahydrocyclopenta[c]pyrrol-5-amine] | 4% | 6.79 | 32% | < 5.00 |  | 
4 | CC1(C)CC(N2C[C@H]3C[C@H](Nc4ccc([S+]([O-])c5ccccc5)nn4)C[C@H]3C2)CCO1 (stereo partly drawn) [compound 65, (3aR,5s,6aS)-2-(2,2-dimethyltetrahydro-2H-pyran-4-yl)-N-(6-(phenylsulfinyl)pyridazin-3-yl)octahydrocyclopenta[c]pyrrol-5-amine] | 5% |  | 10% |  |  | 
5 | CC1(C)CC(N2C[C@H]3C[C@H](Nc4ccc(S(=O)(=O)C5CCCCC5)nn4)C[C@H]3C2)CCO1 (stereo partly drawn) [compound 66, (3aR,5s,6aS)-N-(6-(cyclohexylsulfonyl)pyridazin-3-yl)-2-(2,2-dimethyltetrahydro-2H-pyran-4-yl)octahydrocyclopenta[c]pyrrol-5-amine] |  |  |  | 6.34 | 5% | 7%

The next lines start with the values.

Row | remaining activity at 30 µM (Human M4; [1]) | pIC50 (Human M4) | remaining activity at 30 µM (Rat M4; % ACh maximum at 30 μM, rat M4) | pIC50 (Rat M4) | Human M4 Emin (%) (Human M4; [1]) | Rat M4 Emin (%) (Rat M4; % ACh maximum at 30 μM, rat M4) | SMILES
6 | 4% | 8.62 | 13% | 6.36 |  |  | Fc1ccc(Cl)c(-c2ccc(N[C@H]3C[C@@H]4CN(C5CCC(F)(F)CC5)C[C@@H]4C3)nn2)c1 [compound 67, (3aR,5s,6aS)-N-(6-(2-chloro-5-fluorophenyl)pyridazin-3-yl)-2-(4,4-difluorocyclohexyl)octahydrocyclopenta[c]pyrrol-5-amine]
7 | 3% | 8.55 | 2% | 6.99 |  |  | CC1(C)CCC(N2C[C@H]3C[C@H](Nc4ccc(-c5cc(F)ccc5Cl)nn4)C[C@H]3C2)CC1 [compound 68, (3aR,5s,6aS)-N-(6-(2-chloro-5-fluorophenyl)pyridazin-3-yl)-2-(4,4-dimethylcyclohexyl)octahydrocyclopenta[c]pyrrol-5-amine]
8 | 4% | 7.93 | 17% | 6.04 |  |  | Fc1ccc(Cl)c(-c2ccc(N[C@H]3C[C@@H]4CN(C5CC6(COC6)C5)C[C@@H]4C3)nn2)c1 [compound 69, (3aR,5s,6aS)-N-(6-(2-chloro-5-fluorophenyl)pyridazin-3-yl)-2-(2-oxaspiro[3.3]heptan-6-yl)octahydrocyclopenta[c]pyrrol-5-amine]
9 | 4% | 7.89 | 13% | 5.40 |  |  | CC1(C)C(=O)N(C2CC2)c2nnc(N[C@H]3C[C@@H]4CN(CC5CCOCC5)C[C@@H]4C3)cc21 [compound 70, 7-cyclopropyl-5,5-dimethyl-3-(((3aR,5s,6aS)-2-((tetrahydro-2H-pyran-4-yl)methyl)octahydrocyclopenta[c]pyrrol-5-yl)amino)-5,7-dihydro-6H-pyrrolo [2,3-c]pyridazin-6-one]
